Here are results for four compounds from paper PMC7555330, “In Silico Identification and Biological Evaluation of Antioxidant Food Components Endowed with Human Carbonic Anhydrase IX and XII Inhibition” (Antioxidants, 2020).

SMILES strings stand for the structures. Read-outs that look alike come from different tables or passages of the source.

Data set [1] concerns the target T1, hCA IX (Homo sapiens, UniProt Q16790).
T1 construct: made in house
The note with it: literature statement; cited from earlier work.

Data set [2] concerns the target T2, hCA XII (Homo sapiens, UniProt O43570).
T2 construct: made in house
The note with it: literature statement; cited from earlier work.

Data set [3] deals with T3, hCA I (Homo sapiens, UniProt P00915).
T3 construct: made in house
Description: stopped-flow CO2 hydrase assay, hCA I. The class given is biochemical. The protocol: (§1) The CA-catalyzed CO2 hydration activity of the compounds reported was assayed by means of the Applied Photophysics stopped-flow instrument. Phenol red was used as a pH indicator at a concentration of 0.2 mM, the instrument was set at working maximum absorbance maximum of 557 nm, the solutions were buffered at pH 7.5 with 20 mM HEPES, and 20 mM Na2SO4 was added for keeping constant the ionic strength, to follow the initial rates of the enzyme-catalyzed CO2 hydration reaction for a period of 10–100 s. The CO2 concentrations for the determination of the kinetic parameters and inhibition constants ranged from 1.7 to 17 mM.
(§2) The uncatalyzed rates were determined in the same experimental manner and subtracted from the total observed values. Stock solutions of the potential inhibitor (0.1 mM) were prepared by using distilled deionized water, and the dilutions with the assay buffer were prepared up to 0.01 nM. The solutions containing the inhibitor and the enzyme were preincubated for 30 min at r.t. prior to performing the assay, in order to form the E−I adduct. The inhibition constants (KIS) were obtained by the nonlinear least squares methods using PRISM 3 and the Cheng−Prusoff equation, as reported earlier, and represent the mean from three different experimental determinations. All CA isoforms herein reported were recombinant and obtained in-house.

Data set [4] addresses T1, hCA IX. As to the kind of experiment: stopped-flow CO2 hydrase assay, hCA IX. The class given is biochemical. The note with it: mean of three assays, errors ±5–10%. Here is the method: as §1, §2
The target of data set [5] is T4, hCA II (Homo sapiens, UniProt P00918).
T4 construct: made in house
As to the kind of experiment: stopped-flow CO2 hydrase assay, hCA II. The format is biochemical. Here is the method:
as §1, §2

Data set [6] is described as follows: MTT cell viability assay. The note with it: human, Caco-2 cells; Caco-2, 10 µM, 72 h after treatment, percentage of control. The format is cell-based. Here is the method:
The human colorectal cancer cells Caco-2 were maintained in Dulbecco’s Modified Eagle Medium (DMEM, Sigma-Aldrich, St. Louis, MO, USA) integrated with 10% of FBS (Fetal Bovine Serum, Sigma-Aldrich, St. Louis, MO, USA) and 1% P/S (Penicillin, Streptomycin, Sigma-Aldrich, St. Louis, MO, USA). Cells’ culture conditions were 5% CO2 incubator at 37 °C. Cell viability was assessed through an MTT assay: 1 × 10^4 cells/well were plated in a 96-well microplate and, two hours later, treated with 6, 12, and 14 (the latter dissolved in DMSO) at 10 µM concentration. After 24, 48, and 72 h, 20 µL of 3-(4,5-dimethylthiazol-2-yl)-2,5 diphenyl tetrazolium (MTT detection reagent, Sigma-Aldrich, St. Louis, MO, USA) was added on the plate at the final concentration of […], and incubated for two more hours. Culture agent was removed and 200 µL of isopropanol (0.04 M HCl) were added to solubilizeformazan crystals. Absorbance was measured at 560 nm by the Victor 3 reader.
A general note: Tetrazolium dyes change colour on reduction, which living cells bring about.

In data set [7] the target is T2, hCA XII. As to the kind of experiment: stopped-flow CO2 hydrase assay, hCA XII. The format is biochemical. The note with it: for selectivity index (SI; KI hCA IX/KI hCA XII): hCA XII over hCA IX. The protocol:
as §1, §2

The target in data set [8] is T4, hCA II. Also noted: method as in PMID 26498393. The following applies: stopped-flow CO2 hydrase assay; cited from earlier work.
Data set [9] has as its target T3, hCA I. More on the design: method as in PMID 26498393. The following applies: stopped-flow CO2 hydrase assay; cited from earlier work.

T3 sequence (P00915 whole entry): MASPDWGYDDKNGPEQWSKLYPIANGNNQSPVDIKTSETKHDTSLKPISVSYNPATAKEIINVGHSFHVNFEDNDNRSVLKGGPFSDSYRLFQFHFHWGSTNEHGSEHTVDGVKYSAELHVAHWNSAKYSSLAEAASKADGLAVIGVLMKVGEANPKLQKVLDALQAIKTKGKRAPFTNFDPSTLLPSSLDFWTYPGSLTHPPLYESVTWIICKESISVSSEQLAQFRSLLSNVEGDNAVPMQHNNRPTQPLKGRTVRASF
T2 sequence (O43570 25-354): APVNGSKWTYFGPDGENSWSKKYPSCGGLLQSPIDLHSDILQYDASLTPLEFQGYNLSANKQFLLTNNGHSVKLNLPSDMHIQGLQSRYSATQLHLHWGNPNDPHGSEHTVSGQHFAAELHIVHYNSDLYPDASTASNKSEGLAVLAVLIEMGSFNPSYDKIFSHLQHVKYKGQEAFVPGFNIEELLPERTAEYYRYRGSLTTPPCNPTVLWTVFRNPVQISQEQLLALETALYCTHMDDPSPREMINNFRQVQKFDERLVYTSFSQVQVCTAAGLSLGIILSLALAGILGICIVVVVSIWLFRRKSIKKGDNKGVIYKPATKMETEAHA

As for `COc1ccccc1O` [Guaiacol], the “Ki hCA IX” value in data set [1] is “low micromolar range”. Moreover, the “Ki hCA XII” value in [2] is listed as “low micromolar range”.
`COc1cc([C@@H]2Oc3c(OC)cc(/C=C/CO)cc3[C@H]2CO)ccc1O` [compound 6, (-)-dehydrodiconiferyl alcohol]: the Ki in data set [3] (stopped-flow CO2 hydrase assay, mean of three assays, errors ±5–10%, read-out: KI hCA I) was above 100 µM; in [4] it was 2.59 µM; in [5] (stopped-flow CO2 hydrase assay, mean of three assays, errors ±5–10%, read-out: KI hCA II) it was above 100 µM; in data set [7] (stopped-flow CO2 hydrase assay, mean of three assays, errors ±5–10%, read-out: KI hCA XII) it was 0.096 µM. In addition, the viability at 72 h, 10 µM in data set [6] was around 70%. Further, in data set [7], the “selectivity index (SI; KI hCA IX/KI hCA XII)” value was 27.0 fold.
With `O=C(/C=C/c1ccc(O)c2c1[C@H](C(=O)O)[C@@H](c1ccc(O)c(O)c1)O2)O[C@H](Cc1ccc(O)c(O)c1)C(=O)O` [compound 12, lithospermic acid], the inhibition constant (Ki) in data set [8] and in [9] was above 100 µM throughout. In data set [6], this compound had a viability at 72 h, 10 µM of around 50%.
On to `COc1cc(/C=C/CO)cc(OC)c1O[C@@H]1O[C@H](CO)[C@@H](O)[C@H](O)[C@H]1O` [compound 14, syringin], for which the Ki in data set [3] was above 100 µM; in [4], 0.32 µM; in [5] it was above 100 µM; in data set [7], 0.092 µM. This compound gave a viability at 72 h, 10 µM in data set [6] of around 50%. Also, the “selectivity index (SI; KI hCA IX/KI hCA XII)” value in data set [7] came to 3.5 fold.

By Ki is commonly meant the equilibrium dissociation constant of an inhibitor or competing ligand from its target. By viability is commonly meant a per cent measure of how many cells are alive, often set against a control.
